# Measurements as given in patent US12570655B2, “Cysteine covalent modifiers of AKT1 and uses thereof” (Terremoto Biosciences, Inc., priority 2023, dated 2026).
# Like-named read-outs stand apart in the source and are kept apart here.
# Assays:
# Assay type in all cases: cell-based
# [1] = test system: LAPC4 prostate cancer cells; assay: Antiproliferative effects in LAPC4 cells (CellTiter Glo); details: LAPC4 cells (AKT1 E17K allele), read-out: LAPC4 proliferation IC50
# Procedure, shortened: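 LAPC4 prostate cancer cells carrying AKT1 E17K, grown in IMDM with 12% FBS, were seeded at 1,000 cells/well and exposed to compound dilutions for 72 h. Viability was read as intracellular ATP by CellTiter Glo luminescence, and IC50 was fitted with a log(inhibitor) vs. response Hill equation.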
# AKT1 WT = molecular target: T1, AKT1 WT (Homo sapiens, UniProt P31749); assay: Live cell AKT1 WT target engagement by NanoBRET competitive probe displacement; details: HEK293 cells transfected with kinase-NanoLuciferase fusion, 2 h at 37° C.
# T1 construct: expressed in transfected cells; host or cells: HEK293
# T1 sequence (P31749 whole entry, the tested form may be a part): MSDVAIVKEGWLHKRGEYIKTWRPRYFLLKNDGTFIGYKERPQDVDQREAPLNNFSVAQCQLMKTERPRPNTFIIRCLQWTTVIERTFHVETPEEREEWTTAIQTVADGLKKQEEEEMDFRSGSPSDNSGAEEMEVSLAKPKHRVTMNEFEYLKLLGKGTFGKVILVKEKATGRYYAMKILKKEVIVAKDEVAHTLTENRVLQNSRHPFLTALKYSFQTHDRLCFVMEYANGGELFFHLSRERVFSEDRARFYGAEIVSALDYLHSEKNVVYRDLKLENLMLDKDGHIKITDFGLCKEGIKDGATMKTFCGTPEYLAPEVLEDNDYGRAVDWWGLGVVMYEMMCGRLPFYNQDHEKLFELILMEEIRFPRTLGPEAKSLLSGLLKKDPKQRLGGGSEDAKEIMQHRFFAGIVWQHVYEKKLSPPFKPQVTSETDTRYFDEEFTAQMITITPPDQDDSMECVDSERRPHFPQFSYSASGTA
# Procedure, shortened: (§1)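 HEK293 cells transiently expressing kinase–NanoLuc fusions overnight; treated with serial compound dilutions plus fluorescent ATP-competitive tracer at ~EC50, 2 h at 37 °C. BRET ratio E600/E460 read after substrate and extracellular luciferase inhibitor; IC50 from log(inhibitor) vs response Hill fit.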
# AKT1 E17K = molecular target: T2, AKT1 E17K (Homo sapiens, UniProt P31749, E17K); assay: Live cell AKT1 E17K target engagement by NanoBRET competitive probe displacement; details: HEK293 cells transfected with kinase-NanoLuciferase fusion, 2 h at 37° C.
# T2 construct: expressed in transfected cells; host or cells: HEK293
# T2 sequence (P31749 whole entry E17K, the tested form may be a part): as the sequence (P31749 whole entry, the tested form may be a part) above, with E17K counted along it
# Procedure, shortened: as §1
# AKT2 = molecular target: T3, AKT2 (Homo sapiens, UniProt P31751); assay: Live cell AKT2 target engagement by NanoBRET competitive probe displacement; details: HEK293 cells transfected with kinase-NanoLuciferase fusion, 2 h at 37° C.
# T3 construct: expressed in transfected cells; host or cells: HEK293
# T3 sequence (P31751 whole entry, the tested form may be a part): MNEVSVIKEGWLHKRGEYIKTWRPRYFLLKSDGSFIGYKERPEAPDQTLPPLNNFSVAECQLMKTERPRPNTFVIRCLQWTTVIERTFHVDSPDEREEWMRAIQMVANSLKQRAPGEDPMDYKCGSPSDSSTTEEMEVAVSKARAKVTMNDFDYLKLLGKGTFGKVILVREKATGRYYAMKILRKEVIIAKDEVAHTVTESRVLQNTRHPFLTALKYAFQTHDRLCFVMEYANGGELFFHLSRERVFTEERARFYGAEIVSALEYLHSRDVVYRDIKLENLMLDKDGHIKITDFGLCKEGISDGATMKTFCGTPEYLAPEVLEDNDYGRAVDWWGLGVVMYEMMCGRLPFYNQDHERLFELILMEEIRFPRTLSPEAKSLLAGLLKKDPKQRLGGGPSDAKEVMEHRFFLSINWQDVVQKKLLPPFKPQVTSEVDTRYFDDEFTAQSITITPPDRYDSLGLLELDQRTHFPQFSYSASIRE
# Procedure, shortened: as §1
SMILES,"IC50 ([1]; Homo sapiens, LAPC4, 72 h)",IC50 (AKT1 WT),IC50 (AKT1 E17K),IC50 (AKT2),IC50 ([1]; 72 h)
"C=CC(=O)N1CC2(CC(N[C@H]3CCc4cc(-n5c(-c6cccnc6N)nc6ccc(-n7cccn7)nc65)ccc43)C2)C1 [Example 31, 1-(6-{[(1S)-5-[2-(2-aminopyridin-3-yl)-5-(pyrazol-1-yl)imidazo[4,5-b]pyridin-3-yl]-2,3-dihydro-1H-inden-1-yl]amino}-2-azaspiro[3.3]heptan-2-yl)prop-2-en-1-one]",30.8 nM,12.9 nM,12.6 nM,57.9 nM,
"C=CC(=O)N1CCC(N[C@H]2CCc3cc(-n4c(-c5cccnc5N)nc5ccc(-n6cccn6)nc54)ccc32)C[C@@H]1C (single isomer, unassigned) [Example 65, 1-((2S,4*)-4-(((S)-5-(2-(2-aminopyridin-3-yl)-5-(1H-pyrazol-1-yl)-3H-imidazo[4,5-b]pyridin-3-yl)-2,3-dihydro-1H-inden-1-yl)amino)-2-methylpiperidin-1-yl)prop-2-en-1-one]",,29.6 nM,58.3 nM,397 nM,203 nM
"C=CC(=O)N1CCC(N[C@H]2CCc3cc(-n4c(-c5cccnc5N)nc5ccc(C6CC6)nc54)ccc32)C(C)C1 (single isomer, unassigned) [Example 230, 1-((3*,4*)-4-(((S)-5-(2-(2-aminopyridin-3-yl)-5-cyclopropyl-3H-imidazo[4,5-b]pyridin-3-yl)-2,3-dihydro-1H-inden-1-yl)amino)-3-methylpiperidin-1-yl)prop-2-en-1-one]",,890 nM,41.9 nM,346 nM,600 nM
"C=CC(=O)N1CCC(N[C@H]2CCc3cc(-n4c(-c5cccnc5N)nc5ccc(-n6cccn6)nc54)ccc32)C(F)C1 (single isomer, unassigned) [Example 103, 1-((3*,4*)-4-(((S)-5-(2-(2-aminopyridin-3-yl)-5-(1H-pyrazol-1-yl)-3H-imidazo[4,5-b]pyridin-3-yl)-2,3-dihydro-1H-inden-1-yl)amino)-3-fluoropiperidin-1-yl)prop-2-en-1-one]",,19.3 nM,80.1 nM,547 nM,317 nM
"C=C(F)C(=O)Nc1ccccc1C(=O)N[C@H]1CCc2cc(-n3c(-c4cccnc4N)nc4ccc(-n5cccn5)nc43)ccc21 [Example 5, (S)-N-(5-(2-(2-aminopyridin-3-yl)-5-(1H-pyrazol-1-yl)-3H-imidazo[4,5-b]pyridin-3-yl)-2,3-dihydro-1H-inden-1-yl)-2-(2-fluoroacrylamido)benzamide]",310 nM,19.4 nM,46.2 nM,271 nM,
"C=CC(=O)N(C)Cc1ccccc1C(=O)N[C@H]1CCc2cc(-n3c(-c4cccnc4N)nc4ccc(-n5cccn5)nc43)ccc21 [Example 265, (S)-N-(5-(2-(2-aminopyridin-3-yl)-5-(1H-pyrazol-1-yl)-3H-imidazo[4,5-b]pyridin-3-yl)-2,3-dihydro-1H-inden-1-yl)-2-((N-methylacrylamido)methyl)benzamide]",101 nM,89.6 nM,10.2 nM,24.6 nM,
"C=CC(=O)N1CCc2ccc(C(=O)N[C@H]3CCc4cc(-n5c(-c6cccnc6N)nc6ccc(-n7cccn7)nc65)ccc43)cc21 [Example 7, (S)-1-acryloyl-N-(5-(2-(2-aminopyridin-3-yl)-5-(1H-pyrazol-1-yl)-3H-imidazo[4,5-b]pyridin-3-yl)-2,3-dihydro-1H-inden-1-yl)indoline-6-carboxamide]",2060 nM,20.7 nM,42.8 nM,69.4 nM,
"C=CC(=O)Nc1ccccc1C(=O)N[C@H]1CCc2cc(-n3c(-c4cccnc4N)nc4ccc(-n5cccn5)nc43)ccc21 [Example 1, (S)-2-acrylamido-N-(5-(2-(2-aminopyridin-3-yl)-5-(1H-pyrazol-1-yl)-3H-imidazo[4,5-b]pyridin-3-yl)-2,3-dihydro-1H-inden-1-yl)benzamide]",25.4 nM,11.7 nM,12.2 nM,35 nM,
"C/C=C/C(=O)N1CCC(N[C@H]2CCc3cc(-n4c(-c5cccnc5N)nc5ccc(-n6cccn6)nc54)ccc32)CC1 [Example 96, (S,E)-1-(4-((5-(2-(2-aminopyridin-3-yl)-5-(1H-pyrazol-1-yl)-3H-imidazo[4,5-b]pyridin-3-yl)-2,3-dihydro-1H-inden-1-yl)amino)piperidin-1-yl)but-2-en-1-one]",3650 nM,58 nM,> 1000 nM,3910 nM,
"C=CC(=O)N1CCC(N[C@@H]2c3ccc(-n4c(-c5cccnc5N)nc5ccc(-c6ccn(C(F)F)n6)nc54)cc3CC2F)CC1 (stereo partly drawn) [Example 310, 1-(4-(((1R,2*)-5-(2-(2-aminopyridin-3-yl)-5-(1-(difluoromethyl)-1H-pyrazol-3-yl)-3H-imidazo[4,5-b]pyridin-3-yl)-2-fluoro-2,3-dihydro-1H-inden-1-yl)amino)piperidin-1-yl)prop-2-en-1-one]",,1480 nM,34.5 nM,277 nM,553 nM
"CC(C)=CC(=O)N1CCC(N[C@H]2CCc3cc(-n4c(-c5cccnc5N)nc5ccc(-n6cccn6)nc54)ccc32)CC1 [Example 185, 1-(4-{[(1S)-5-[2-(2-aminopyridin-3-yl)-5-(pyrazol-1-yl)imidazo[4,5-b]pyridin-3-yl]-2,3-dihydro-1H-inden-1-yl]amino}piperidin-1-yl)-3-methylbut-2-en-1-one]",4130 nM,2170 nM,53.2 nM,912 nM,

# More lines, in order of falling IC50 (AKT1 WT), values ahead:
"IC50 ([1]; Homo sapiens, LAPC4, 72 h)",IC50 (AKT1 WT),IC50 (AKT1 E17K),IC50 (AKT2),IC50 ([1]; 72 h),SMILES
809 nM,1690 nM,186 nM,394 nM,,"C=CC(=O)N1CCC(N[C@H]2CCc3cc(-n4c(-c5cccnc5N)nc5ccc(-c6nnc(C)o6)nc54)ccc32)CC1 [Example 256, (S)-1-(4-((5-(2-(2-aminopyridin-3-yl)-5-(5-methyl-1,3,4-oxadiazol-2-yl)-3H-imidazo[4,5-b]pyridin-3-yl)-2,3-dihydro-1H-inden-1-yl)amino)piperidin-1-yl)prop-2-en-1-one]"
,928 nM,21.7 nM,248 nM,674 nM,"C=CC(=O)N1CCC(N[C@@H]2c3ccc(-n4c(-c5cccnc5N)nc5ccc(-n6ccc(F)n6)nc54)cc3CC2F)C[C@@H]1C (single isomer, unassigned) [Example 271, 1-((2S,4*)-4-(((1R,2*)-5-(2-(2-aminopyridin-3-yl)-5-(3-fluoro-1H-pyrazol-1-yl)-3H-imidazo[4,5-b]pyridin-3-yl)-2-fluoro-2,3-dihydro-1H-inden-1-yl)amino)-2-methylpiperidin-1-yl)prop-2-en-1-one]"
347 nM,518 nM,21.8 nM,113 nM,,"C=CC(=O)N1CCC(N[C@H]2CCc3cc(-n4c(-c5cccnc5N)nc5cc(F)c(-n6cccn6)nc54)ccc32)CC1 [Example 313, 1-(4-{[(1S)-5-[2-(2-aminopyridin-3-yl)-6-fluoro-5-(pyrazol-1-yl)imidazo[4,5-b]pyridin-3-yl]-2,3-dihydro-1H-inden-1-yl]amino}piperidin-1-yl)prop-2-en-1-one]"
1090 nM,72.6 nM,358 nM,1870 nM,,"C=CC(=O)N1CC(N2CCC(N[C@H]3CCc4cc(-n5c(-c6cccnc6N)nc6ccc(-n7cccn7)nc65)ccc43)CC2)C1 [Example 158, (S)-1-(3-(4-((5-(2-(2-aminopyridin-3-yl)-5-(1H-pyrazol-1-yl)-3H-imidazo[4,5-b]pyridin-3-yl)-2,3-dihydro-1H-inden-1-yl)amino)piperidin-1-yl)azetidin-1-yl)prop-2-en-1-one]"
1390 nM,46 nM,546 nM,865 nM,,"C=CC(=O)N1CCC(N[C@H]2CCc3cc(-n4c(-c5cccnc5N)nc5ccc(C6CC6)nc54)ccc32)CC1 [Example 85, (S)-1-(4-((5-(2-(2-aminopyridin-3-yl)-5-cyclopropyl-3H-imidazo[4,5-b]pyridin-3-yl)-2,3-dihydro-1H-inden-1-yl)amino)piperidin-1-yl)prop-2-en-1-one]"
,36.6 nM,116 nM,558 nM,351 nM,"C=CC(=O)N1CC2(CCC(N[C@H]3CCc4cc(-n5c(-c6cccnc6N)nc6ccc(-n7cccn7)nc65)ccc43)C2)C1 (single isomer, unassigned) [Example 91, 1-((*)-6-(((S)-5-(2-(2-aminopyridin-3-yl)-5-(1H-pyrazol-1-yl)-3H-imidazo[4,5-b]pyridin-3-yl)-2,3-dihydro-1H-inden-1-yl)amino)-2-azaspiro[3.4]octan-2-yl)prop-2-en-1-one]"
16.8 nM,11.9 nM,14.2 nM,27.1 nM,,"C=CC(=O)N1CC2(CCCC(N[C@H]3CCc4cc(-n5c(-c6cccnc6N)nc6ccc(-n7cccn7)nc65)ccc43)C2)C1 (single isomer, unassigned) [Example 79, 1-((*)-6-(((S)-5-(2-(2-aminopyridin-3-yl)-5-(1H-pyrazol-1-yl)-3H-imidazo[4,5-b]pyridin-3-yl)-2,3-dihydro-1H-inden-1-yl)amino)-2-azaspiro[3.5]nonan-2-yl)prop-2-en-1-one]"
29.8 nM,11.5 nM,9.43 nM,31.8 nM,,"C=CC(=O)NCc1ccccc1C(=O)N[C@H]1CCc2cc(-n3c(-c4cccnc4N)nc4ccc(-n5cccn5)nc43)ccc21 [Example 71, N-[(1S)-5-[2-(2-aminopyridin-3-yl)-5-(pyrazol-1-yl)imidazo[4,5-b]pyridin-3-yl]-2,3-dihydro-1H-inden-1-yl]-2-(prop-2-enamidomethyl)benzamide]"
